Among the test systems are NCI/ADR-RES ovarian; OVCAR-5 ovarian; SN12C renal; OVCAR-4 ovarian; NCI-H226 lung; U251 CNS; SW-620 colon; HCT-15 colon; OVCAR-3 ovarian; SNB-19 CNS; M14 melanoma; 786-0 renal; HCT-116 colon; PC-3 prostate; SK-MEL-28 melanoma; SR leukemia; RXF 393 renal; UACC-257 melanoma; NCI-H522 lung; CAKI-1 renal.
Test in all cases: growth of human tumour cells (NCI), 48 h

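Tested at 5 concentrations; 48 h exposure; 96-well plates; endpoints linearly interpolated, else capped at highest concentration. TGI marks complete inhibition of growth.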

With `CCOC(=O)c1nc2ccccc2nc1Oc1ccc(OC)cc1`, the TGI in the test on NCI/ADR-RES ovarian, in the test on OVCAR-5 ovarian, in the test on SN12C renal, in the test on OVCAR-4 ovarian, in the test with NCI-H226 lung and in the test on U251 CNS was > 100 µM each time. The TGI with SW-620 colon, in the test with HCT-15 colon, with OVCAR-3 ovarian, in the test on SNB-19 CNS, with M14 melanoma and in the test on 786-0 renal was > 100 µM throughout. For the same compound, the TGI with HCT-116 colon, with PC-3 prostate, in the test on SK-MEL-28 melanoma, in the test on SR leukemia, in the test on RXF 393 renal and in the test with UACC-257 melanoma was > 100 µM throughout. For the same compound, the TGI in the test on NCI-H522 lung was > 100 µM.

For `CCN1C[C@]2(C)CC[C@H](OCc3ccccc3)C34C5C[C@@H]6CC[C@](O)(C(C[C@@H]32)C14)C5[C@H]6OCc1ccccc1` (stereo not given in full), the TGI with NCI/ADR-RES ovarian, in the test with OVCAR-5 ovarian, in the test with SN12C renal, with OVCAR-4 ovarian, in the test on NCI-H226 lung and with U251 CNS was > 100 µM each time. The TGI in the test on SW-620 colon, in the test on HCT-15 colon, in the test on OVCAR-3 ovarian, in the test with SNB-19 CNS, in the test on M14 melanoma and with 786-0 renal was > 100 µM each time. Also, the TGI with HCT-116 colon, in the test with PC-3 prostate, in the test on SK-MEL-28 melanoma, with SR leukemia, with RXF 393 renal and with UACC-257 melanoma was > 100 µM throughout.

For the compound `CC1=NN(C(=O)c2ccccc2O)C(c2ccccc2Cl)C1C(=O)Nc1ccccc1` (stereo not given), the TGI is > 49.5 µM in the test with NCI/ADR-RES ovarian; > 43.7 µM with OVCAR-5 ovarian; > 44.8 µM in the test with SN12C renal; > 100 µM in the test on OVCAR-4 ovarian; 8.02 µM in the test on NCI-H226 lung; > 100 µM in the test with U251 CNS. Further, the TGI in the test with CAKI-1 renal was > 100 µM; with SW-620 colon, > 100 µM; in the test with HCT-15 colon it was > 100 µM; in the test on OVCAR-3 ovarian, > 51.3 µM; in the test with SNB-19 CNS, > 100 µM; in the test on M14 melanoma, 33.1 µM. For the same compound, the TGI was > 44.9 µM in the test on 786-0 renal; > 100 µM in the test on PC-3 prostate; > 100 µM with SK-MEL-28 melanoma; > 100 µM in the test on SR leukemia; > 100 µM with RXF 393 renal; > 100 µM with UACC-257 melanoma. This compound also had a TGI in the test with NCI-H522 lung of 0.692 µM.

`CC(C)(C)c1cc(C(=O)/C=C/c2ccc3c(c2)CCO3)cc(C(C)(C)C)c1O`: the TGI with NCI/ADR-RES ovarian was 1.05 µM; in the test with OVCAR-5 ovarian it was > 27.6 µM; with SN12C renal, > 33.9 µM; with NCI-H226 lung, > 28.4 µM; in the test with U251 CNS, 3.17 µM; in the test on CAKI-1 renal it was 22.1 µM. The TGI in the test with SW-620 colon was > 100 µM; with HCT-15 colon, > 25.9 µM; in the test on OVCAR-3 ovarian it was > 100 µM; with SNB-19 CNS, > 82.3 µM; in the test with M14 melanoma, 5.25 µM; in the test on 786-0 renal it was 11.2 µM. Further, the TGI in the test on HCT-116 colon was > 33.7 µM; with PC-3 prostate, 4.8 µM; in the test on SK-MEL-28 melanoma, > 100 µM; in the test with SR leukemia it was 7.39 µM; in the test on RXF 393 renal, 0.579 µM; in the test on NCI-H522 lung it was 2.16 µM.

Regarding `CN(C)CCNC(=O)c1cc(-c2nccn2C)nc2ccccc12`, the TGI in the test with NCI/ADR-RES ovarian, in the test on OVCAR-5 ovarian, in the test with SN12C renal, in the test on NCI-H226 lung, in the test on U251 CNS and in the test with CAKI-1 renal was > 100 µM throughout. The TGI in the test on SW-620 colon, in the test with HCT-15 colon, in the test with SNB-19 CNS, in the test on M14 melanoma, in the test with 786-0 renal and in the test on HCT-116 colon was > 100 µM in each case. In addition, the TGI in the test on PC-3 prostate, in the test with SR leukemia, with RXF 393 renal, in the test on UACC-257 melanoma and with NCI-H522 lung was > 100 µM in each case.

`Cc1cc(C)c(NS(=O)c2cccc(Cl)c2)c(C)c1` (stereo not given): the TGI in the test with NCI/ADR-RES ovarian, in the test with OVCAR-5 ovarian, in the test on SN12C renal, in the test on NCI-H226 lung, in the test with U251 CNS and with SW-620 colon was > 100 µM throughout. In addition, the TGI in the test with HCT-15 colon, with OVCAR-3 ovarian, in the test on SNB-19 CNS, in the test on M14 melanoma, in the test with 786-0 renal and in the test with HCT-116 colon was > 100 µM in each case. Also, the TGI in the test with PC-3 prostate, with SK-MEL-28 melanoma, in the test with SR leukemia, in the test with RXF 393 renal and with UACC-257 melanoma was > 100 µM throughout.

Regarding `O=C(/C=C(\O)c1ccc(Cl)cc1)C(=O)NN=C(c1ccccc1)c1ccccc1`, the TGI was 50.3 µM in the test on NCI/ADR-RES ovarian; > 100 µM in the test with OVCAR-5 ovarian; > 100 µM in the test on SN12C renal; > 100 µM in the test on OVCAR-4 ovarian; > 100 µM in the test with NCI-H226 lung; > 100 µM in the test on U251 CNS. The TGI in the test on CAKI-1 renal, in the test with HCT-15 colon, in the test with OVCAR-3 ovarian, in the test with SNB-19 CNS, in the test with M14 melanoma and with 786-0 renal was > 100 µM in each case. The TGI with HCT-116 colon was > 100 µM; with PC-3 prostate, > 100 µM; with SR leukemia, > 100 µM; with RXF 393 renal, > 100 µM; in the test on UACC-257 melanoma it was > 100 µM; in the test on NCI-H522 lung, 49 µM.

On to `CCOC(=O)C(=CNC(=S)Nc1c(CC)cccc1CC)C(=O)OCC`, for which the TGI with NCI/ADR-RES ovarian, in the test with OVCAR-5 ovarian, in the test on SN12C renal, in the test on OVCAR-4 ovarian, in the test on NCI-H226 lung and in the test with U251 CNS was > 100 µM each time. For the same compound, the TGI in the test on CAKI-1 renal, in the test on SW-620 colon, in the test with OVCAR-3 ovarian, in the test on SNB-19 CNS, in the test with M14 melanoma and in the test with 786-0 renal was > 100 µM throughout. For the same compound, the TGI in the test with HCT-116 colon, with PC-3 prostate, with SK-MEL-28 melanoma, in the test with SR leukemia, in the test with RXF 393 renal and in the test on UACC-257 melanoma was > 100 µM each time. Also, the TGI in the test with NCI-H522 lung was > 100 µM.

The record behind these values is PubChem BioAssay (NCI).
